Measured values taken from a melting point compilation (Tetko et al.; mined from patent text by program, amines drawn as free bases though some values may be those of a salt).

First: CN(C)Cc1ccc(CSCCNC(=C[N+](=O)[O-])NCCCCCCCCCCCCNC(=C[N+](=O)[O-])NCCSCc2ccc(CN(C)C)o2)o1
Second: CCCCCCCCCCCC(=O)NCc1ccsc1
The melting point of the first is lower: 74 to 76 °C for the first, 83 to 84 °C for the second.

First: COc1ccc2cc(C(C)C(=O)OCC(=O)OCCO)ccc2c1 (stereo not given)
Second: CCC(=O)NCCC1c2cc(OC)ccc2-c2ccc(OC)cc21
The melting point of the first is lower: 87 to 90 °C for the first, 139 to 140 °C for the second.

First: CCCCc1nn(-c2ccc(C(F)(F)F)cn2)cc1CCCOc1nn(CC)cc1CC(=O)O
Second: CCCCc1cn(Cc2ccc(-c3ccccc3C(=O)O)cc2)c2c(c1=O)CC(C)CC2 (stereo not given)
The melting point of the first is lower: 109 to 110 °C for the first, 255 °C for the second.

Compared with NCCOc1cccc2c1CC(=O)N2, CCCOc1ccc([N+](=O)[O-])nc1C is lower in melting point: 146 to 148 °C for the first, 54 to 56 °C for the second.

Compared with C=CC[C@@H]1CCC(=O)C[C@H]1c1ccc(OCc2ccccc2)cc1OCc1ccccc1 (relative stereo), O=C(O)COc1ccc2c(c1)CCc1sc(SC(c3ccccc3)c3ccccc3)nc1-2 is higher in melting point: 104 to 106 °C for the first, 193 to 195 °C for the second.

First: COc1ccnc(CCc2nc3cc(-c4ccc(S(=O)(=O)N5CCC6(CC5)OCCO6)cc4)cnc3[nH]2)c1
Second: Cc1noc(NC(=O)N2CCN(c3nccc(-c4ccc(F)cc4)n3)CC2)c1C
The melting point of the first is lower: 121 to 122 °C for the first, 226 to 227 °C for the second.

First: Cc1cc(-c2cc(C(F)(F)F)n3ncc(C(=O)Nc4cccc(S(N)(=O)=O)c4)c3n2)ccc1Cl
Second: Cc1onc(-c2ccccc2)c1-c1ccc(S(=O)(=O)NC(=O)CC(C)(C)S)cc1
The melting point of the first is higher: 275 °C for the first, 138 to 140 °C for the second.

Compared with O=CC1=CCC(C=CC(=O)O)C=C1 (stereo not given), O=C(O)CCC1CNC(=O)CC1c1ccc(F)cc1 (stereo not given) is higher in melting point: 134 to 138 °C for the first, 139 to 141 °C for the second.

Compared with COc1ccc(S(=O)(=O)N2C(=O)[C@@](c3ccccc3OC)(N3C[C@H](OC(C)=O)C[C@H]3C(=O)N(C)C)c3cc(Cl)ccc32)c(OC)c1, COc1ccc(CN2CC(=O)Nc3ccc(OC)cc3C2=O)c(OC)c1 is higher in melting point: 194 to 195 °C for the first, 196 °C for the second.

First: O=C(Nc1cn(C2CCCCO2)nc1C(=O)NCCCOc1ccccc1)c1ccccn1 (stereo not given)
Second: N#Cc1cccnc1N1CCN(CNC(=O)c2ccccc2)CC1
The melting point of the first is lower: 106 to 107 °C for the first, 133 to 136 °C for the second.

Compared with CCC1CSC(CCc2ccccc2)(Cn2ccnc2)S1 (stereo not given), Clc1cnc2[nH]c3ccc(CCc4ccccc4)cc3c2c1 is higher in melting point: 115 to 118 °C for the first, 216 to 220 °C for the second.

Compared with O=C1CCCN(C(=O)c2ccc([N+](=O)[O-])cc2Cl)c2ncccc21, COC(=O)c1cc(Oc2ccc([N+](=O)[O-])cc2)ccc1OC is lower in melting point: 162 to 164 °C for the first, 115 to 118 °C for the second.

First: CCOC(=O)C1=C(N)NC2=C(C(=O)CCC2)C1c1cccc(C)n1 (stereo not given)
Second: CCOC(=O)Cc1cc(C)c(C(=O)c2ccccc2)n1C
The melting point of the first is higher: over 260 °C for the first, 78 to 80 °C for the second.

Compared with CC(C)(C)OC(=O)NCCCCNC1(c2ccccc2Cl)C(=O)Nc2ccc(Cl)cc21 (stereo not given), Cc1ccc(CNc2ccc(Cl)cc2Cl)c(C)c1 is lower in melting point: 175 to 176 °C for the first, 88 to 90 °C for the second.

First: CCCCCn1c2ccc(C(=O)O)cc2c2ccc(SC)cc21
Second: COC(=O)c1c(Cc2ccc(C(=O)CO)cc2)c(=O)c2ccc(C)nc2n1-c1ccccc1
The melting point of the first is higher: 211 to 212 °C for the first, 190 to 193 °C for the second.

Compared with COc1ccccc1-c1nc(=S)n(Cc2ccccc2)[nH]1, COC(=O)c1[nH]c2ccccc2c1Oc1ccccc1N is higher in melting point: 142 to 144 °C for the first, 183 to 184 °C for the second.

First: CC(=O)O[C@@H]1OCC[C@@H]1NC(=O)[C@H](CC(C)C)NC(=O)c1ccc(N)cc1
Second: CCOc1cc(C(CC(C)O)N2C(=O)c3cccc(NC(C)=O)c3C2=O)ccc1OC (stereo not given)
The melting point of the first is higher: 148 to 150 °C for the first, 132 to 134 °C for the second.

First: Cc1cc(I)cc(C=CC#N)c1
Second: N#Cc1cnn(-c2ccc(C(F)(F)F)cc2Cl)c1Br
The melting point of the first is lower: 98 °C for the first, 127 °C for the second.

First: COC(=O)CCc1cc2c(s1)-n1c(C)nnc1C(C)N=C2c1ccccc1Cl (stereo not given)
Second: Cc1cc(-c2nnc3c4ccccc4c(OCc4ccc5ccccc5n4)nn23)no1
The melting point of the first is lower: 131 to 132 °C for the first, 223 to 225 °C for the second.

First: CCn1c(=O)c2[nH]c(/C=C/c3cccc([N+](=O)[O-])c3)nc2n(CC)c1=O
Second: Cc1[nH]c(=S)n(Nc2cccc([N+](=O)[O-])c2)c1-c1ccccc1
The melting point of the first is higher: over 270 °C for the first, 214 °C for the second.

N#CCc1cccc2c(-c3ccc(F)cc3)onc12 and ON=C(c1ccc(O)c(Cl)c1Cl)c1cccc2ccccc12 cannot be ordered by melting point: 158 to 160 °C for the first, 145 to 160 °C for the second.

First: FC(F)(F)c1ccc2c(c1)N(C1=CCCN1C1=NCCC1)c1ccccc1O2
Second: Nc1ccc2c(c1)C(=O)CC1(CCN(CCc3ccc4nonc4c3)CC1)O2
The melting point of the first is lower: 140 to 142 °C for the first, 191 to 193 °C for the second.

Compared with O=C1CC(=O)[C@H](CC2CCCCC2)N1, NC(=O)N(O)[C@H]1CC[C@H](c2cccc(F)c2)C1 (relative stereo) is lower in melting point: 165 to 167 °C for the first, 113 to 114 °C for the second.

First: Cc1c(F)c(F)c(CNc2ccc(Cl)c(O)c2)c(F)c1F
Second: COc1ccc2nc(Cl)c(Cl)nc2c1
The melting point of the first is lower: 52 °C for the first, 156 to 159 °C for the second.

First: O=C(Nc1nn(-c2ccccc2)cc1C(=O)O)OCc1cc2cc(-c3ccccc3)ccc2o1
Second: CNCC(O)c1cn(C(c2ccccc2)(c2ccccc2)c2ccccc2)cn1 (stereo not given)
The melting point of the first is higher: 221 °C for the first, 169 to 171 °C for the second.

First: O=Cc1cn(CCCCO)c2ncccc12
Second: O=C(c1ccccc1)C1CNC(=S)C1 (stereo not given)
The melting point of the first is lower: 90 °C for the first, 110 to 112 °C for the second.

Going from Cc1cc2c(cc1-c1cc(C=C3SC(=O)NC3=O)ccc1OC(F)(F)F)C(C(C)C)=CCC2(C)C to COc1ccc(CN(C)CCc2ccc(NC(=O)c3cccc4c(=O)c5cccc(F)c5[nH]c34)cc2)cc1OC, the melting point falls from 179 °C to 175 °C.

First: O=C(NC12CC3CC(CC(C3)C1)C2)c1cc(O)c(O)cc1[N+](=O)[O-]
Second: c1c(NC23CC4CC(CC(C4)C2)C3)nc(NC23CC4CC(CC(C4)C2)C3)nc1N1CCNCC1
The melting point of the first is higher: 250 to 255 °C for the first, 168 to 175 °C for the second.

First: CSc1sc(C(=O)O)c2c1-c1sc(C(=O)O)cc1CC2
Second: C=CCOc1cc2c(cc1CC=C)CCC(=O)N2CC=C(C)C
The melting point of the first is higher: over 300 °C for the first, 20 to 28 °C for the second.

First: CCN(CC)CCOc1ccc(-c2oc3ccc(Cl)cc3c2C(=O)c2cc(C)cc(C)c2)cc1
Second: COc1ccccc1N1CCN(CC(O)COc2ccc3cc(C(C)=O)oc3c2)CC1 (stereo not given)
The melting point of the first is higher: 161 to 162 °C for the first, 122 to 125 °C for the second.

Compared with CN1CC(c2cc(OCc3ccccc3)ncn2)=C(O)C1=O, CN1CCC(c2cccc3ccc(-c4cncnc4)cc23)CC1 is lower in melting point: 203 to 204 °C for the first, 122 to 123 °C for the second.

First: CCCc1nc2c(N)nc3ccc(-c4cccc(CN)c4)cc3c2s1
Second: CC(C)n1cnc2c(N[C@H](CO)c3ccccc3)nc(NC[C@@H](C)O)nc21
The melting point of the first is higher: 189 to 191 °C for the first, 109 to 112 °C for the second.

First: Cc1ccc(S(=O)(=O)O[C@@H]2C[C@@H](CCl)N(S(=O)(=O)c3ccc(C)cc3)C2)cc1
Second: CC(=O)c1cccc(NC(=O)c2cc(C(=O)Nc3cccc(C(C)=O)c3)cc(C(=O)Nc3cccc(C(C)=O)c3)c2)c1
The melting point of the first is lower: 145 to 146 °C for the first, 270 °C for the second.

First: CCCCC1(CCCC)C(=O)N(C(C)(C)C)CC(C)(C)N1OC(C)(C)C#N
Second: Cc1cc(-c2nncc3c(Br)c(OCc4ncnn4C)nn23)no1
The melting point of the first is lower: 68 to 74 °C for the first, 239 to 241 °C for the second.

Compared with Cc1nc2ccc(Cl)nn2c1Br, C#CCN1C(=O)COc2cc(F)ccc21 is lower in melting point: 146 to 148 °C for the first, 98 to 100 °C for the second.
